For one test, the target named is T1, HSV-1 helicase-primase (Human herpesvirus 1, UniProt P10189+P10236).
T1 construct: made in house; host or cells: Sf21 insect cells triply infected with recombinant baculoviruses (UL5, UL8, UL52)
The test is described as follows: HSV-1 DNA-dependent ATPase assay (inhibition of HSV-1 helicase-primase). The format is biochemical. The method in brief:
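ATP hydrolysis was measured as inorganic phosphate (malachite green/molybdate, 650 nm) after 20 min at 34°. Reaction: 3 μg/mL purified Sf21-expressed UL5/UL8/UL52 helicase-primase, 25 μM single-stranded M13 DNA hybridized to 68-mer, 4 mM ATP, pH 7.5 HEPES buffer, 3.3% DMSO. Net absorbance change with and without inhibitor gave DNA-dependent ATPase activity.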

A further test has as its system HSV-1 strain F or KOS. The test is described as follows: Inhibition of herpes simplex virus (HSV-1) replication in cell culture (BHK-21 cells, glycoprotein C ELISA). The format is cell-based. The method in brief: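 Replication readout: ELISA for HSV-1 late glycoprotein C (mAb C11, peroxidase-OPD, 450 nm) on glutaraldehyde-fixed cells. Monolayers (~50,000 cells/well) were infected with strain F or KOS (MOI 0.05 PFU/cell), then incubated 24 h at 37° with compound in 2% FBS α-MEM. EC50 derived from % inhibition.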

[1] abbreviates: Human alphaherpesvirus 1, BHK-21, Group 1 Table 3 entries.
[2] abbreviates: Human alphaherpesvirus 1, BHK-21, Group 1 Table 1 entries.
[3] abbreviates: Group 1 Table 2 entries (Q = CH2).
The mark [4] stands for this setting: Human alphaherpesvirus 1, BHK-21, Group 1 Table 2 entries.

From patent US6288091A, “Antiherpes virus compounds and methods for their preparation and use” (Boehringer Ingelheim Ltd., priority 1999, dated 2001) come the findings set out here.

T1 sequence (P10192 whole entry): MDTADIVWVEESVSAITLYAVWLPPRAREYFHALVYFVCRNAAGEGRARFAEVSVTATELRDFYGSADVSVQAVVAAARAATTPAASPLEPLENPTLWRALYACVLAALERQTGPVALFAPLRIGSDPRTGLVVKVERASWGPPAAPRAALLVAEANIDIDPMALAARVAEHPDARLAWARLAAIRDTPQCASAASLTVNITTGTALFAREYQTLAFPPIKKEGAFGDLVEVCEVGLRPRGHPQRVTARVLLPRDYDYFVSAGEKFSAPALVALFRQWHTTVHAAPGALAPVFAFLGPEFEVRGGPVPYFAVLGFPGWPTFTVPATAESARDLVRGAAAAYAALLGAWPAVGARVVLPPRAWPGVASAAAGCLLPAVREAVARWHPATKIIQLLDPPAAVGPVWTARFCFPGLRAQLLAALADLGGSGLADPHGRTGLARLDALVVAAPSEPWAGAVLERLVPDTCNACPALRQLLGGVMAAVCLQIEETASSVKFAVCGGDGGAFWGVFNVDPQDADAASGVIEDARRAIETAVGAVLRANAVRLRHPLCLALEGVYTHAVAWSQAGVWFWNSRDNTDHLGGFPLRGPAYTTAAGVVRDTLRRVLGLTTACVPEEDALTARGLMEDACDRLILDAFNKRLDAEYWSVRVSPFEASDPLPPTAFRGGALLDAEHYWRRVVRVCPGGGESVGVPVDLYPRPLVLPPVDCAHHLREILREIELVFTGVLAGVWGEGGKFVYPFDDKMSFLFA
T1 sequence (P10236 whole entry): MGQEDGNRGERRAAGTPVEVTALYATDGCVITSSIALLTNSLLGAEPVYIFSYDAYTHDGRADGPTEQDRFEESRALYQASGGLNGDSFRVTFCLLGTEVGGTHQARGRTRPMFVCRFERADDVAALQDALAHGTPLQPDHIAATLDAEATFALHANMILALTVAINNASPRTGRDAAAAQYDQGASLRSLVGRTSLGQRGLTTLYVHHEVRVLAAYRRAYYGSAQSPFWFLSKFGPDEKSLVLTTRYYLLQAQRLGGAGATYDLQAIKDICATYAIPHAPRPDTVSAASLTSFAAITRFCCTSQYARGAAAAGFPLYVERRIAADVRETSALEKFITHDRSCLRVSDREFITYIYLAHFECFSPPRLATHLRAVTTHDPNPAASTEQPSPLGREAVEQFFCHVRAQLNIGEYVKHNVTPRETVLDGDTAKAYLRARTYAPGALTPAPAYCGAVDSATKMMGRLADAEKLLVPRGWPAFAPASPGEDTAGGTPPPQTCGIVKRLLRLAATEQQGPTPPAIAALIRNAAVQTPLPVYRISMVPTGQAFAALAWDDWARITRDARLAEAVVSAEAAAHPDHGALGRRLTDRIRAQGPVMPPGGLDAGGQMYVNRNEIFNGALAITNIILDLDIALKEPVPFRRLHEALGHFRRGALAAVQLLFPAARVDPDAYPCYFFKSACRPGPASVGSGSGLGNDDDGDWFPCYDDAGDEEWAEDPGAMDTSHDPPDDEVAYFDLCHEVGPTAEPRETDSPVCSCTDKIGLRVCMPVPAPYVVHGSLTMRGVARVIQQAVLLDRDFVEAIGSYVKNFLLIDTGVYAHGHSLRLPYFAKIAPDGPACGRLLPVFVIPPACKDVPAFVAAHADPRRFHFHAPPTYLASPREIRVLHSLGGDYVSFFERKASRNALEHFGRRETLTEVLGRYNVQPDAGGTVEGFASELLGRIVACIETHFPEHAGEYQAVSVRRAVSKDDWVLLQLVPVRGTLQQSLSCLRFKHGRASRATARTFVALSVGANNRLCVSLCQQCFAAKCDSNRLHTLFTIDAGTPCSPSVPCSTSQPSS
T1 sequence (P10189 whole entry): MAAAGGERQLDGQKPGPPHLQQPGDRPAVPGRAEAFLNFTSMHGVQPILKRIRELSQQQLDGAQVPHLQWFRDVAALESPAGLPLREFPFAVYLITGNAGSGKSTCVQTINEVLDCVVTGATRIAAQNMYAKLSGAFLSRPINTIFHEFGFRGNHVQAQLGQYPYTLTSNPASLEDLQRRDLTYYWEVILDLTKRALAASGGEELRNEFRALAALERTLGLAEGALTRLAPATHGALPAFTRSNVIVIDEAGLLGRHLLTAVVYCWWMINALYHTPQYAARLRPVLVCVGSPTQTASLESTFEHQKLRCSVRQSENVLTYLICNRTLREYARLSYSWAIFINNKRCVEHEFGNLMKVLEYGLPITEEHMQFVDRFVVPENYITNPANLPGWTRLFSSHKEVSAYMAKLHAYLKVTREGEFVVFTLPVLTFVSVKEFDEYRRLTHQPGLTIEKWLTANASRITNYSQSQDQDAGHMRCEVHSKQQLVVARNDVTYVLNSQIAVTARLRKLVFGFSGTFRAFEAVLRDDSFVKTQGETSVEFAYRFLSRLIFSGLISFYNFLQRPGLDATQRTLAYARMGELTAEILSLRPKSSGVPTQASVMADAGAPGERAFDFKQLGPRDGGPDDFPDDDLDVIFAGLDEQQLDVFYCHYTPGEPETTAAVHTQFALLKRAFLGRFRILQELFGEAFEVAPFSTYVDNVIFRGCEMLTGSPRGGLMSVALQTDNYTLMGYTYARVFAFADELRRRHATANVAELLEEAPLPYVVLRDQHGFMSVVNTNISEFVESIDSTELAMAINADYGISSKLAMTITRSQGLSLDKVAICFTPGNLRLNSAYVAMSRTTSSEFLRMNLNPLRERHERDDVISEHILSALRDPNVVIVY

For the molecule `CN(C)c1nc(-c2ccc(NC(=O)CN(Cc3ccccc3)C(=O)c3ccccc3)cc2)cs1` [Example 11], on HSV-1 helicase-primase (Group 1 Table 3 entries), the IC50 was more than 50000 nM. The same molecule showed a concentration giving a half-maximal response (EC50) in the test on HSV-1 strain F or KOS (setting [1]) of 24 nM.
`Nc1nc(-c2ccc(NC(=O)CN(CCc3ccccc3)C(=O)C3CCCC3)cc2)cs1` [Example 66]: on HSV-1 helicase-primase (Group 1 Table 1 entries), the concentration for half-maximal inhibition (IC50) was 400 nM. The same molecule displayed an EC50 in the test with HSV-1 strain F or KOS (setting [2]) of 90 nM.
In the case of `CC(C)(C)CN(CC(=O)Nc1ccc(-c2csc(N)n2)cc1)C(=O)C1CCCCC1` [Example 80], the half-maximal inhibitory concentration (IC50) against HSV-1 helicase-primase (Group 1 Table 1 entries) was found to be 960 nM. This molecule also returned an EC50 with HSV-1 strain F or KOS (setting [2]) of 310 nM.
The matching figures for `CC(=O)N(CC(=O)Nc1ccc(-c2csc(N)n2)cc1)Cc1ccccc1` [Example 44]: 3300 nM and 750 nM.
On HSV-1 helicase-primase (setting [3]), `CC(C)(C)OC(=O)N(CCC(=O)Nc1ccc(-c2csc(N)n2)cc1)Cc1ccccc1` [Example 15] came in with a 50% inhibitory concentration (IC50) of 280 nM. Besides, in the test with HSV-1 strain F or KOS (setting [4]), a half-maximal effect (EC50) was put at 640 nM.
Consider `C[C@@H](NCC(=O)Nc1ccc(-c2csc(N)n2)cc1)c1ccccc1` [Example 11], for which, on HSV-1 helicase-primase (Group 1 Table 1 entries), the IC50 is 3700 nM. The EC50 with HSV-1 strain F or KOS (setting [2]) was found to be 1300 nM.
With `Nc1nc(-c2ccc(NC(=O)CN(Cc3ccncc3)C(=O)C3CCCCC3)cc2)cs1` [Example 49, N-{2-{{4-(2-amino-4-thiazolyl)phenyl}amino}-2-oxoethyl}-N-(4-pyridinylmethyl)cyclohexanecarboxamide], on HSV-1 helicase-primase (Group 1 Table 1 entries), the half-maximal inhibitory concentration (IC50) amounted to 37 nM. Further, the response in the test on HSV-1 strain F or KOS (setting [2]) was half-maximal at 12 nM (EC50).
On HSV-1 helicase-primase (Group 1 Table 3 entries), `CC(=O)Nc1nc(-c2ccc(NC(=O)CN(Cc3ccccc3)C(C)=O)cc2)cs1` [Example 18] came in with a concentration for half-maximal inhibition (IC50) of more than 100000 nM. Besides, the EC50 with HSV-1 strain F or KOS (setting [1]) is more than 30000 nM.
In turn, `Nc1nc(-c2ccc(NC(=O)CN(Cc3ccccc3)C(=O)c3ccc(F)cc3)cc2)cs1` [Example 24] registered a 50% inhibitory concentration (IC50) at HSV-1 helicase-primase (Group 1 Table 1 entries) of 48 nM. Further, the EC50 in the test with HSV-1 strain F or KOS (setting [2]) was 2 nM.
In turn, `CC(C)(C)OC(=O)N(CC(=O)Nc1ccc(-c2csc(N)n2)cc1)Cc1ccncc1` [Example 90] gave an IC50 on HSV-1 helicase-primase (Group 1 Table 1 entries) of 58 nM. Further, the EC50 in the test with HSV-1 strain F or KOS (setting [2]) is 15 nM.
Take `Nc1nc(-c2ccc(NC(=O)CCN(C(=O)c3cccnc3)C3Cc4ccccc4C3)cc2)cs1` [Example 12]: inhibition at HSV-1 helicase-primase (setting [3]) was half-maximal at 10000 nM (IC50). Moreover, a half-maximal effect in the test with HSV-1 strain F or KOS (setting [4]) (EC50) was put at 7600 nM.
On HSV-1 helicase-primase (Group 1 Table 1 entries), `CC(C)(C)CC(=O)N(CC(=O)Nc1ccc(-c2csc(N)n2)cc1)Cc1ccccc1` [Example 42] came in with an IC50 of 26 nM. The same molecule displayed a concentration giving a half-maximal response (EC50) in the test on HSV-1 strain F or KOS (setting [2]) of 2 nM.
With `Nc1nc(-c2ccc(NC(=O)CN(CC3CCCCC3)C(=O)C3CCNCC3)cc2)cs1` [Example 62], on HSV-1 helicase-primase (Group 1 Table 1 entries, at 50 μM, read-out: inhibition at 50 μM (printed in the HSV-1 IC50 column)), the inhibition at 50 µM came to 29%. Besides, the EC50 with HSV-1 strain F or KOS (setting [2]) was 5500 nM.
Regarding `Nc1nc(-c2ccc(NC(=O)CN(Cc3ccccc3)C(=O)c3ccncc3)cc2)cs1` [Example 29], inhibition at HSV-1 helicase-primase (Group 1 Table 1 entries) was half-maximal at 240 nM (IC50). The molecule further registered an EC50 with HSV-1 strain F or KOS (setting [2]) of 35 nM.
In the case of `CC(C)(C)C(=O)N(CC(=O)Nc1ccc(-c2csc(N)n2)cc1)Cc1ccccc1` [Example 41], the midpoint of inhibition on HSV-1 helicase-primase (Group 1 Table 1 entries), the IC50, lay at 800 nM. The same molecule registered a concentration giving a half-maximal response (EC50) in the test on HSV-1 strain F or KOS (setting [2]) of 36 nM.
The molecule `Nc1nc(-c2ccc(NC(=O)CN(Cc3ccccc3)Cc3ccccc3)cc2)cs1` [Example 16] showed an IC50 against HSV-1 helicase-primase (Group 1 Table 1 entries) of 550 nM. In the test with HSV-1 strain F or KOS (setting [2]), this molecule gave an EC50 of 450 nM.
`Nc1nc(-c2ccc(NC(=O)CN(Cc3ccccc3)C(=O)c3cnccn3)cc2)cs1` [Example 33]: the concentration for half-maximal inhibition (IC50) against HSV-1 helicase-primase (Group 1 Table 1 entries) is 1100 nM. The EC50 in the test on HSV-1 strain F or KOS (setting [2]) was found to be 170 nM.
The molecule `Nc1nc(-c2ccc(NC(=O)CN(Cc3ccccc3)C(=O)c3cccs3)cc2)cs1` [Example 32] had a half-maximal inhibitory concentration (IC50) at HSV-1 helicase-primase (Group 1 Table 1 entries) of 420 nM. In the test on HSV-1 strain F or KOS (setting [2]), this molecule showed a half-maximal effective concentration (EC50) of 40 nM.
The molecule `Nc1nc(-c2ccc(NC(=O)CN(CCc3ccccn3)C(=O)C3CCCCC3)cc2)cs1` [Example 50] had an IC50 on HSV-1 helicase-primase (Group 1 Table 1 entries) of 600 nM. Further, in the test with HSV-1 strain F or KOS (setting [2]), the EC50 was 68 nM.
In turn, `Nc1nc(-c2ccc(NC(=O)CN(Cc3ccccn3)C(=O)C3CCCCC3)cc2)cs1` [Example 47] came in with a half-inhibitory concentration (IC50) against HSV-1 helicase-primase (Group 1 Table 1 entries) of 72 nM. In the test with HSV-1 strain F or KOS (setting [2]), this molecule came in with a concentration giving a half-maximal response (EC50) of 13 nM.
Regarding `C[C@@H](c1ccccc1)N(CCC(=O)Nc1ccc(-c2csc(N)n2)cc1)Cc1ccccc1` [Example 19], the half-maximal inhibitory concentration (IC50) against HSV-1 helicase-primase (setting [3]) was found to be 460 nM. For the same molecule, a half-maximal effect in the test with HSV-1 strain F or KOS (setting [4]) (EC50) was put at 890 nM.
For the molecule `CC(C)(C)OC(=O)N[C@H](Cc1ccccc1)C(=O)Nc1ccc(-c2csc(N)n2)cc1` [Example 4], the half-maximal inhibitory concentration (IC50) against HSV-1 helicase-primase (Group 1 Table 5 entries) came out at 1500 nM. In the test with HSV-1 strain F or KOS (Human alphaherpesvirus 1, BHK-21, Group 1 Table 5 entries), this molecule yielded a 50% effective concentration (EC50) of 570 nM.
